Blank lines part the entries; values can stand above or below the compound they belong to.
What was measured:
[1] = test system: HCT-116, BxPC-3, A549, BT-549, LNCaP, MIA Paca-2 tumor cells; assay: In vitro cell proliferation (alamarBlue); format: cell-based; details: Homo sapiens; 96 hr incubation; read-out: IC50 against at least one of HCT-116, MIA Paca-2, or LNCaP cells
Protocol: Compounds are tested for their ability to inhibit cell proliferation and viability. The metabolic reduction of alamarBlue™ (Biosource cat. no. DAL1100) was used to measure cell viability.
The anti-proliferative activity of compounds is studied using a panel of tumor cells: HCT-116 (human colorectal carcinoma cell line), BxPC-3 (human pancreatic adenocarcinoma cell line), A549 (human lung carcinoma cell line), BT-549 (human breast carcinoma cell line), LNCaP (human prostate carcinoma cell line), and MIA Paca-2 (human pancreatic carcinoma cell line). These adherent cells (1,000-20,000) are plated in complete media (RPMI-1640, DMEM, F12K, or McCoy's 5A) containing 10% fetal bovine serum (Gibco) in tissue culture treated 96-well plates (Costar) and placed in a humidified incubator at 37° C., […], 5% CO2 for 18-24 hr. Media was removed and replaced with 90 μL fresh media. Compound is diluted in media containing 3% DMSO and added to cells. Background (C^−) relative fluorescent units are determined by incubating alamarBlue™ reagent for 6 hr using untreated cells plated 18 hr earlier. Untreated cells or cells containing compound are incubated for 96 hr. During the last 6 hr of the incubation period, alamarBlue™ reagent (10 μL) was added to each well and incubated in a humidified incubator at 37° C., […], 5% CO2.
AlamarBlue™ reduction is measured in a fluorescence plate reader with instrument settings for excitation at 530 nm and emission at 590 nm. […] Compound IC50 values are determined from % inhibition versus compound concentration curve plots using GraphPad Prism™ according to the 4 parameter logistic equation Y=Bottom+(Top−Bottom)/1+10^((Log EC50−X)*HillSlope)).

BT-474 breast xenograft = assay: BT-474 xenograft model, Example 88 alone and in combination with trastuzumab; format: in vivo, athymic SCID mice; details: for Median Tumor Size: Example 88 30 mg/kg i.p. b.i.d. 3 days on, 2 days off, 5 cycles, trastuzumab 10 mg/kg i.p. twice weekly 4 weeks
Source text: Mice-bearing sc tumors were randomized, and treatment groups consisted of 10 mice.

[2] = test system: human MiaPaCa-2 pancreatic xenografts; assay: MiaPaCa-2 xenograft model, Example 88 alone and in combination with erlotinib; format: in vivo, athymic mice; details: for Median Tumor Size: Example 88 10 mg/kg i.p. b.i.d. 10 days, erlotinib 50 mg/kg p.o. daily 14 days
Protocol: (§1) Compounds were dosed on the following schedules:
2) Erlotinib was dosed 50 mg/kg, p.o., daily for 14 days (days 1-14).
Mice-bearing sc tumors were randomized, and treatment groups consisted of 8 mice.

[3] = test system: human MiaPaCa-2 pancreatic xenografts; assay: MiaPaCa-2 xenograft model, Example 88 alone and in combination with gemcitabine; format: in vivo, athymic mice; details: for Median Tumor Size: Example 88 10 mg/kg i.p. b.i.d. 10 days, gemcitabine 120 mg/kg i.p. q3d×4
Protocol: as §1
2) Gemcitabine was dosed 120 mg/kg, i.p., q3d×4 (days 1, 4, 7, 10).
Drug treatment started when mean tumor sizes reached approximately 120 mg (day 8). Mice-bearing sc tumors were randomized, and treatment groups consisted of 8 mice. The median tumor size for each group at various points in the study are listed below in Table B.

[4] = test system: human tumor xenografts derived from pancreas and breast tissues; assay: Single agent antitumor activity in established human tumor xenografts; format: in vivo; details: established human tumor xenografts in athymic mice
Source text: While the compounds of the present invention may be used as a single agent, they may also be used as part of a combination therapy.

[5] = day 24, out of 10 mice, Table CC head: Example 88 10 mg/kg, Trastuzumab 10 mg/kg
[6] = day 8 of study (treatment start)
[7] = previous dose response studies in this model, 10 mg/kg
[8] = day 42, out of 8 mice, Example 88 10 mg/kg, gemcitabine 120 mg/kg

IC50 [1]: ≤ 3000 nM
Compound: Cc1cccnc1Nc1nc2cc(C(=O)Nc3ccc4cn[nH]c4c3)c(N3CCOCC3)cc2[nH]1 [Example 60, 2-(3-Methylpyridin-2-ylamino)-6-morpholin-4-yl-1H-benzimidazole-5-carboxylic acid (1H-indazol-6-yl)-amide]

Compound: O=C(Nc1ccc2cn[nH]c2c1)c1cc2nc(Nc3ccccc3C(F)(F)F)[nH]c2cc1N1CCNCC1 [Example 88, 6-Piperazin-1-yl-2-(2-trifluoromethylphenylamino)-1H-benzimidazole-5-carboxylic acid (1H-indazol-6-yl)-amide]
Median Tumor Size (BT-474 breast xenograft; day 4 of study): 120 mg | Median Tumor Size (BT-474 breast xenograft; day 7 of study): 152 mg | Median Tumor Size (BT-474 breast xenograft; day 10 of study): 153 mg | Median Tumor Size (BT-474 breast xenograft; day 14 of study): 179 mg | Median Tumor Size (BT-474 breast xenograft; day 17 of study): 149 mg | Median Tumor Size (BT-474 breast xenograft; day 21 of study): 142 mg | complete responders (CR) (BT-474 breast xenograft; [5]): 0/10 | partial responders (PR) (BT-474 breast xenograft; [5]): 0/10 | Median Tumor Size (BT-474 breast xenograft; day 24 of study): 138 mg | Median Tumor Size (BT-474 breast xenograft; day 28 of study): 104 mg | Median Tumor Size [2, 6]: 120 mg | Median Tumor Size ([2]; day 10 of study): 162 mg | Median Tumor Size ([2]; day 13 of study): 170 mg | Median Tumor Size ([2]; day 16 of study): 170 mg | Median Tumor Size ([2]; day 20 of study): 221 mg | Median Tumor Size ([2]; day 23 of study): 209 mg | Median Tumor Size ([2]; day 27 of study): 368 mg | Median Tumor Size ([2]; day 30 of study): 486 mg | Median Tumor Size ([2]; day 34 of study): 817 mg | Median Tumor Size ([2]; day 37 of study): 1055 mg | Median Tumor Size ([2]; day 42 of study): 1629 mg | effectiveness of dose for inhibition of tumor growth [2, 7]: moderately effective dose | Median Tumor Size [3, 6]: 120 mg | Median Tumor Size ([3]; day 10 of study): 162 mg | Median Tumor Size ([3]; day 13 of study): 170 mg | Median Tumor Size ([3]; day 16 of study): 170 mg | Median Tumor Size ([3]; day 20 of study): 221 mg | Median Tumor Size ([3]; day 23 of study): 209 mg | Median Tumor Size ([3]; day 27 of study): 368 mg | Median Tumor Size ([3]; day 30 of study): 486 mg | Median Tumor Size ([3]; day 34 of study): 817 mg | Median Tumor Size ([3]; day 37 of study): 1055 mg | complete responders (CR, 100% reduction in tumor size) [3, 8]: 0/8 | partial responders (PR, greater than 50% reduction in tumor size) [3, 8]: 0/8 | Median Tumor Size ([3]; day 42 of study): 1629 mg | effectiveness of dose for inhibition of tumor growth [3, 7]: moderately effective dose | antitumor activity as a single agent [4]: demonstrated antitumor activity

— US8377983B2, “Benzazole derivatives, compositions, and methods of use as aurora kinase inhibitors” (TransTech Pharma, Inc., priority 2006, dated 2013)
